ChEMBL document CHEMBL2424564, “Vermelhotin, an anti-inflammatory agent, suppresses nitric oxide production in RAW 264.7 cells via p38 inhibition” (J Nat Prod, 2013)
Calls of active or inactive are those of the source. No cut-off for these calls is given here.

Legend:
RAW264.7 [1] = test: Antiinflammatory activity in mouse RAW264.7 cells assessed as inhibition of LPS-induced nitric oxide production at 50 uM incubated for 15 mins prior to LPS challenge measured after 20 hrs by Griess assay relative to control; type: functional
RAW264.7 [2] = test: Antiinflammatory activity in mouse RAW264.7 cells assessed as inhibition of LPS-induced nitric oxide production incubated for 15 mins prior to LPS challenge measured after 20 hrs by Griess assay; type: functional, cell-based
[3] = (§1) Cytotoxicity against mouse RAW264.7 cells assessed as cell survival after 20 hrs by SRB assay; type: cell-based; settings: RAW264.7 cells, read-out: Survival
RAW264.7 [4] = test: as §1; type: cell-based; settings: raw264.7, 20 h
RAW264.7 [5] = test: Activation of NF-kappaB in mouse RAW264.7 cells assessed as inhibition of LPS-induced IkappaB degradation at 1.9 to 16.7 uM incubated for 15 mins prior to LPS stimulation measured after 15 mins by Western blot analysis; type: cell-based
[6] = biological target: T1, MAP kinase p38 (Mus musculus) (UniProt P47811+O08911+Q9WUI1+Q9Z1B7); test: Inhibition of p38 phosphorylation in LPS-stimulated mouse RAW264.7 cells at 16.7 uM incubated for 15 mins prior to LPS stimulation measured after 15 mins by Western blot analysis; type: cell-based
RAW264.7 [7] = test: Downregulation of iNOS mRNA expression in LPS-stimulated mouse RAW264.7 cells at 16.7 uM incubated for 15 mins prior to LPS stimulation measured after 6 hrs by qRT-PCR analysis relative to vehicle-treated control; type: functional
RAW264.7 [8] = test: Downregulation of iNOS mRNA expression in LPS-stimulated mouse RAW264.7 cells at 1.9 uM incubated for 15 mins prior to LPS stimulation measured after 6 hrs by qRT-PCR analysis (reference value: 503.95 no unit); type: functional
RAW264.7 [9] = test: Downregulation of iNOS mRNA expression in LPS-stimulated mouse RAW264.7 cells at 16.7 uM incubated for 15 mins prior to LPS stimulation measured after 6 hrs by qRT-PCR analysis (reference value: 503.95 no unit); type: functional
RAW264.7 [10] = test: Effect on ERK phosphorylation in LPS-stimulated mouse RAW264.7 cells at 1.9 to 16.7 uM incubated for 15 mins prior to LPS stimulation measured after 15 mins by Western blot analysis; type: cell-based
RAW264.7 [11] = test: Effect on JNK phosphorylation in LPS-stimulated mouse RAW264.7 cells at 1.9 to 16.7 uM incubated for 15 mins prior to LPS stimulation measured after 15 mins by Western blot analysis; type: cell-based
RAW264.7 [12] = test: Downregulation of iNOS mRNA expression in LPS-stimulated mouse RAW264.7 cells at 5.6 uM incubated for 15 mins prior to LPS stimulation measured after 6 hrs by qRT-PCR analysis (reference value: 503.95 no unit); type: functional
RAW264.7 [13] = test: Downregulation of iNOS protein expression in LPS-stimulated mouse RAW264.7 cells incubated for 15 mins prior to LPS stimulation measured after 20 hrs by Western blot analysis; type: functional, cell-based
RAW264.7 [14] = test: Downregulation of iNOS mRNA expression in LPS-stimulated mouse RAW264.7 cells incubated for 15 mins prior to LPS stimulation measured after 6 hrs by qRT-PCR analysis; type: functional, cell-based
[15] = biological target: T1, MAP kinase p38 (Mus musculus); test: Inhibition of p38 phosphorylation in LPS-stimulated mouse RAW264.7 cells incubated for 15 mins prior to LPS stimulation measured after 15 mins by Western blot analysis; type: cell-based

SMILES	inhibition at 50 µM (RAW264.7 [1])	IC50 (RAW264.7 [2])	viability at 20 h [3]	Activity (RAW264.7 [4])	also measured
C/C=C(\C)c1cc(O)c(C)c2c1Oc1cc(O)c(Cl)c(C)c1C(=O)O2	≥ 80%	36.1 µM	> 80%	–	–
C/C=C(\C)c1c(Br)c(O)c(C)c2c1Oc1cc(O)c(Br)c(C)c1C(=O)O2	≥ 80%	23.7 µM	–	Toxic	–
CC[C@@H](C)C[C@]1(C)C=C/C(=C2/C(=O)O[C@H](CC(=O)OC)C2=O)O1	≥ 80%	6.82 µM	–	Toxic	–
Cc1cc(O)c2c(c1O)C(=O)c1cc(O)cc(O)c1C2=O [CATENARIN]	≥ 80%	41.3 µM	> 80%	–	–
CNC(=N)NCCC[C@H](N)C(=O)O [TILARGININE]	–	21.7 µM	–	–	–
C/C=C/C1=CC=C/C(=C2\C(=O)CNC2=O)O1 [VERMELHOTIN]	≥ 80%	5.35 µM	> 80%	–	Activity (RAW264.7 [5]): Active; inhibition [6]: Active; inhibition at 16.7 µM (RAW264.7 [7]): > 95%; fold change (FC) (RAW264.7 [8]): 203.39; fold change (FC) (RAW264.7 [9]): 13.72; Activity (RAW264.7 [10]): inactive; Activity (RAW264.7 [11]): inactive; fold change (FC) (RAW264.7 [12]): 144.02; inhibition (RAW264.7 [13]): Dose-dependent effect; inhibition (RAW264.7 [14]): Dose-dependent effect; inhibition [15]: Dose-dependent effect
